Data: PMC5732813, “Novel piplartine-containing ruthenium complexes: synthesis, cell growth inhibition, apoptosis induction and ROS production on HCT116 cells” (Oncotarget, 2017)

Key:
[1] = tested on: cancer multicellular spheroids formed from HCT116 cells; experiment: 3D multicellular spheroids culture, alamar blue assay; type: cell-based, human; conditions: 3D spheroids of HCT116, 72 h treatment, alamar blue; read-out: IC50
Protocol: (§1) Cell viability was quantified using the alamar blue assay, according to Ahmed et al.. Cells were inserted in 96-well plates for all experiments (7 x 10^4 cells/mL for adherent cells or 3 x 10^5 cells/mL for suspended cells in 100 μL of medium). […] Negative controls received the vehicle that was used for diluting the compounds tested.
HCT116 cells were cultivated in 3D multicellular spheroids. Briefly, 100 μL of a solution of cells (0.5 x 10^6 cells/mL) were inserted in 96-well plate with a cell-repellent surface (Greiner Bio-One, Kremsmünster, Austria) and cultured in RPMI 1640 medium with 10% fetal bovine serum, 2 mM glutamine, 3% matrigel (BD Biosciences, San Jose, CA, EUA) and 50 μg/mL gentamycin at 37°C with 5% CO2. […] Negative control received the vehicle that was used for diluting the compounds tested. In the end of the experiment, morphological changes were examined by light microscopy (Olympus BX41, Tokyo, Japan) using Image-Pro software (Media Cybernetics, Inc. Silver Spring, USA) and the cell viability was determined by alamar blue assay as described above.

[2] = tested on: SCC-4 (human oral squamous cell carcinoma); experiment: Cytotoxic activity, alamar blue assay, SCC-4; type: cell-based; conditions: SCC-4, 72h of incubation, alamar blue; with 95% confidence interval
Text: (§2) HCT116 (human colon carcinoma), HepG2 (human hepatocellular carcinoma), HSC-3 (human oral squamous cell carcinoma), SCC-4 (human oral squamous cell carcinoma), SCC-9 (human oral squamous cell carcinoma), HL-60 (human promyelocytic leukemia), K-562 (human chronic myelogenous leukemia), B16-F10 (murine melanoma), MRC-5 (human lung fibroblast), WT SV40 MEF (wild-type immortalized mouse embryonic fibroblast) and BAD KO SV40 MEF (BAD gene knockout immortalized mouse embryonic fibroblast) cell lines were obtained from the American Type Culture Collection (ATCC, Manassas, VA, USA) and cultured in RPMI-1640 medium (Gibco-BRL, Gaithersburg, MD, USA) with 10% fetal bovine serum (Life, Carlsbad, CA, USA), 2 mM L-glutamine (Vetec Química Fina, Duque de Caxias, RJ, Brazil) and 50 μg/mL gentamycin (Life, Carlsbad, CA, USA). Adherent cells were collected by treatment with 0.25% trypsin EDTA solution (Gibco-BRL, Gaithersburg, MD, USA). All cell lines were cultured in flasks at 37°C in 5% CO2 and sub-cultured every 3-4 days to maintain exponential growth.
as §1

[3] = tested on: HCT116 cells; experiment: Internucleosomal DNA fragmentation and cell cycle distribution (DNA content, flow cytometry); type: cell-based, human; conditions: HCT116, 3 μM, mean ± S.E.M.
Protocol: Cells were harvested in a permeabilization solution containing 0.1% triton X-100 (Sigma Chemical Co. St Louis, MO, USA), 2 μg/mL propidium iodide (Sigma Chemical Co. St Louis, MO, USA), 0.1% sodium citrate and 100 μg/mL RNAse (Sigma Chemical Co. St Louis, MO, USA) and incubated in the dark for 15 min at room temperature.

[4] = tested on: HL-60 (human promyelocytic leukemia); experiment: Cytotoxic activity, alamar blue assay, HL-60; type: cell-based; conditions: HL-60, 72h of incubation, alamar blue; with 95% confidence interval
Text: as §2, §1

[5] = tested on: PBMC (human peripheral blood mononuclear cells); experiment: Cytotoxic activity, alamar blue assay, PBMC non-cancer cells; type: cell-based; conditions: PBMC non-cancer cells, 72h of incubation, alamar blue; with 95% confidence interval; read-out: IC50
Protocol: PBMCs were washed and resuspended at a concentration of 3 x 10^5 cells/mL in RPMI 1640 medium with 20% fetal bovine serum, 2 mM glutamine and 50 μg/mL gentamycin at 37°C with 5% CO2. […] The Research Ethics Committee of the Oswaldo Cruz Foundation (Salvador, Bahia, Brazil) approved the experimental protocol (# 031019/2013). All participants signed a written informed consent to participate in the study.
as §1

[6] = tested on: MRC-5 (human lung fibroblast); experiment: Cytotoxic activity, alamar blue assay, MRC-5 non-cancer cells; type: cell-based; conditions: MRC-5 non-cancer cells, 72h of incubation, alamar blue; with 95% confidence interval; read-out: IC50
Text: as §2, §1

[7] = tested on: WT SV40 MEF (wild-type immortalized mouse embryonic fibroblast); experiment: Cytotoxic activity, alamar blue assay, WT SV40 MEF; type: cell-based; conditions: Mus musculus, Fibroblast; WT SV40 MEF, 72 h incubation, alamar blue; read-out: IC50
Text: as §2, §1

[8] = tested on: BAD KO SV40 MEF (BAD gene knockout immortalized mouse embryonic fibroblast); experiment: Cytotoxic activity, alamar blue assay, BAD KO SV40 MEF; type: cell-based; conditions: Mus musculus, Fibroblast; BAD KO SV40 MEF, 72 h incubation, alamar blue; read-out: IC50
Text: as §2, §1

Compound	IC50 [1]	IC50 [2]	DNA content (%) S ([3]; 24h)	DNA content (%) S ([3]; 48h)	IC50 [4]	IC50 [5]	IC50 [6]	IC50 [7]	IC50 [8]
O=C1[O][Pt]2([NH][C@@H]3CCCC[C@H]3[NH]2)[O]C1=O [Oxaliplatin]	9.3 µM	7.7 µM	16.9 ± 2.0%	17.4 ± 1.9%	0.6 µM	9.4 µM	1.3 µM	–	–
O=c1[nH]cc(F)c(=O)[nH]1 [5-fluorouracil]	–	–	–	–	–	–	–	1.7 µM	7.3 µM
